Assay results published in patent US12636371B2, “Chemically coupled transporter for low-hydrophobicity bioactive drugs into the central nervous system” (Skybio LLC, priority 2021, dated 2026).

Columns and labels:
[1] = biological target: T1, recombinant human AS (α-synuclein) (Homo sapiens, UniProt P37840); experiment: Thioflavin T fluorescence assay of AS amyloid aggregation; assay type: biochemical; conditions: 70 μM AS, 10 or 50 μM compound, 37° C., 600 rpm, 20 mM HEPES pH 7.4
T1 construct: made in house
Protocol: In order to evaluate the effect of Pegasus (D9) on AS amyloid fibril formation, aggregation reactions were performed according to LeVine (LeVine H, 3rd. Thioflavine T interaction with synthetic Alzheimer's disease beta-amyloid peptides: detection of amyloid aggregation in solution. Protein Sci 1993; 2(3): 404-10; LeVine H, 3rd. Quantification of beta-sheet amyloid fibril structures with thioflavin T. Methods Enzymol 1999; 309: 274-84.). In brief, the formation of cross-ß structures were followed by adding Thioflavin T (ThT), a fluorescent cross-β reporter probe, to aliquots extracted from the incubation mixture at different times.
Expression and purification of recombinant human AS were performed as previously described (Hoyer W, Antony T, Cherny D, Heim G, Jovin T M, Subramaniam V. Dependence of AS aggregate morphology on solution conditions. J Mol Biol 2002; 322(2): 383-93), and purity was assessed by SDS-PAGE. […] The protein concentration was determined by absorbance at 275 nm using the extinction coefficient ε275=5600 cm^−1 M^−1. […]
For aggregation reactions, aliquots of monomeric AS (70 μM) in 20 mM HEPES, pH 7.4 were incubated in a Thermomixer comfort (Eppendorf) at 37° C. and 600 rpm in the absence or presence of 10 or 50 μM D9. Aggregation was monitored with a Horiba FluoroMax-4 spectrofluorometer using the ThT fluorescence assay.

SH-SY5Y cells [2] = experiment: Lysosome localization and number, LysoTracker Deep Red confocal microscopy; assay type: cell-based; conditions: 200 μM, 24 hs
Excerpt: Lysosomes are the final destination of the autophagic pathway. LysoTracker™ fluorescent probes, dyes that preferentially accumulate in vesicles with acidic pH, are widely used for tracing lysosomes in living and fixed cells in order to study organelle localization, their resident proteins, assess organelle functionality, quantify lysosome numbers and abnormalities in vesicular pH (Eskelinen E L, Schmidt C K, Neu S, et al. Disturbed cholesterol traffic but normal proteolytic function in LAMP-1/LAMP-2 double-deficient fibroblasts. Mol Biol Cell 2004; 15(7): 3132-45), and to examine the efficiency of autophagosome/lysosome fusion in live cells (González-Polo R A, Boya P, Pauleau A L, et al. The apoptosis/autophagy paradox: autophagic vacuolization before apoptotic death. J Cell Sci 2005; 118 (Pt 14): 3091-102.).
The effect of Pegasus on lysosomal activity in SH-SY5Y cells was estimated by visualizing the localization and number of lysosomes, marked by LysoTracker™ Deep Red (ThermoFisher #L12492), after treatment with 200 μM of Pegasus for 24 hs. After incubation, cells were fixed in PFA 4% prepared for confocal microscopy. Images were acquired in a ZEISS LSM800 confocal microscope.

[3] = test system: IL-1β release in Bv2 cells; experiment: IL-1β release in LPS-stimulated microglial cells (ELISA); assay type: cell-based, murine
Protocol: To evaluate the effect of Pegasus on LPS-activated microglia, Bv2 cells were pretreated with Pegasus (D9) (200 μM). After 4 h of treatment, cells were stimulated with LPS (10 μg/mL, final concentration) during 24 h. Doxycycline (Doxy) (200 μM) and Dexamethasone (Dexa) (200 μM) were used as a positive control of anti-inflammatory effects. IL-1β cytokine concentration was measured by ELISA assays (Mouse IL-1 beta ELISA Kit, Cat #BMS6002, Invitrogen), according to instructions provided by the manufacturer.

SH-SY5Y cells [4] = experiment: CellROX assay of intracellular reactive oxygen species induced by ASf; assay type: cell-based; conditions: 24 h
Protocol: In order to characterize the antioxidant properties of D9, its protective action on the AS-induced production of reactive oxygen species (ROS) in a cellular model was assessed. For this, SH-SY5Y cells were treated with fibrils of AS (ASf) (AS incubated 120 h at 37° C. and 600 rpm), and the reactive oxygen species produced were examined using the CellROX® Orange Reagent (Invitrogen), which undergoes oxidation by ROS to form a stable fluorescent compound.
In addition, cells were also treated with doxycycline 10 μM+7 μM ASf (ASf+Doxy) as a positive control, and 10 μM doxycycline alone (Doxy). All conditions were incubated 24 h at 37° C. and 5% CO2. […] Fluorescent images of randomly chosen fields were acquired with identical acquisition parameters using a Zeiss Axio Vert.A1 inverted fluorescence microscope.

Inhibition of AS aggregation (ThT fluorescence) [1]: able to inhibit AS aggregation
Structure (SMILES): C[C@H]1c2ccc(NC(=O)CCC(=O)NCCc3ccc(O)c(O)c3)c(O)c2C(=O)C2=C(O)[C@]3(O)C(=O)C(C(N)=O)=C(O)CC3[C@@H](O)C21 (stereo partly drawn) [Pegasus]
Localization and number of lysosomes (lysosome biogenesis) (SH-SY5Y cells [2]): does not interfere with the biogenesis of lysosomes
IL-1β production after LPS stimulation ([3]; 200 μM pretreatment 4 h, then LPS 10 μg/mL 24 h): reduced production of IL-1β
IL-1β release, compound alone ([3]; compound alone, no LPS): did not lead to a significantly increase of IL-1β release
Intracellular ROS induced by ASf in presence of compound (SH-SY5Y cells [4]; 7 μM ASf + 10 μM compound): no increase in ROS production was observed
Intracellular ROS induced by compound alone (SH-SY5Y cells [4]; human, 10 μM): neither the presence of D9 nor doxycycline induced intracellular ROS
